Among the data in US20160193216A1 (Nimbus Iris, Inc., priority 2012, published 2016) are IC50 values, retold here.

pIC50: −log10 of the molar value. Bounds are passed on as bounds.

The assay concerns the target T1, IRAK4 (Homo sapiens, UniProt Q9NWZ3).
T1 sequence (Q9NWZ3 1-460): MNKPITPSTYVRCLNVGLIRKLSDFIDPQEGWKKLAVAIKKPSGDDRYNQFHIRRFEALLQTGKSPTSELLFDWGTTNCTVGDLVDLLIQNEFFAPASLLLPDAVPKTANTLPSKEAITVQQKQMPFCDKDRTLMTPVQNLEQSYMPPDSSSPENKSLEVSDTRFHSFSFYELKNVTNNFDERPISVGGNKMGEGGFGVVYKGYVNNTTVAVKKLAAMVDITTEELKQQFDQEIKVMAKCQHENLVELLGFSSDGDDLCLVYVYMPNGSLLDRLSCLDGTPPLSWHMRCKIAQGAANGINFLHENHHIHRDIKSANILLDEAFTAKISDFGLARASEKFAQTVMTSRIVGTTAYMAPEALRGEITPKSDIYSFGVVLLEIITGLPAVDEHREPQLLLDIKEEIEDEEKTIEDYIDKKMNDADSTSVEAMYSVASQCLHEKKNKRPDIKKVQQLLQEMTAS
Kind of assay: IRAK-4 activity inhibition assay (Caliper). In kind it is biochemical. Particulars: 37 μM ATP, 3.5 nM IRAK4.

`CN[C@H]1CC[C@H](Oc2ncnc3sc4c(c23)[C@@H](CCC(N)=O)CCC4)CC1` [Compound I-162, 3-((R)-4-(((1r,4R)-4-(methylamino)cyclohexyl)oxy)-5,6,7,8-tetrahydrobenzo[4,5]thieno[2,3-d]pyrimidin-5-yl)propanamide]: the pIC50 is > 5.30.
As to `CN[C@H]1CC[C@H](Oc2ncnc3sc4c(c23)CN(C(C)=O)CC4)CC1` [Compound I-202, 1-(3-[[4-(methylamino)cyclohexyl]oxy]-8-thia-4,6,12-triazatricyclo[7.4.0.0[2,7]]trideca-1 (9),2,4,6-tetraen-12-yl)ethan-1-one], the pIC50 is 4.70 to 5.30.
The same measure for `CN[C@H]1CC[C@H](Oc2ncnc3sc4c(c23)[C@@H](C[C@@H](C#N)OC)CC4)CC1` [Compound I-80, (2S)-2-methoxy-3-[(3R)-12-[[4-(methylamino)cyclohexyl]oxy]-7-thia-9,11-diazatricyclo[6.4.0.0[2,6]]dodeca-1(8),2(6),9,11-tetraen-3-yl]propanenitrile]: > 5.30; for `COC(=O)CC1CCc2sc3ncnc(N[C@H]4CC[C@H](N(C)C)CC4)c3c21` (stereo partly drawn) [Compound I-11]: 4.70 to 5.30; for `CN(C)[C@H]1CC[C@H](Oc2ncnc3sc4c(c23)C(CC#N)CC4)CC1` (stereo partly drawn) [Compound I-22, 2-(12-[[4-(dimethylamino)cyclohexyl]oxy]-7-thia-9,11-diazatricyclo[6.4.0.0[2,6]]dodeca-1(8),2(6),9,11-tetraen-3-yl)acetonitrile]: 4.70 to 5.30.
The same measure for `CCS(=O)(=O)N1CCc2sc3ncnc(N[C@H]4CC[C@H](N5CCOCC5)CC4)c3c2C1` [Compound I-181, 12-(ethanesulfonyl)-N-[4-(morpholin-4-yl)cyclohexyl]-8-thia-4,6, 12-triazatricyclo[7.4.0.0[2,7]]trideca-1(9),2(7),3,5-tetraen-3-amine]: 4.70 to 5.30.
The same measure for `NC(=O)[C@H](O)C[C@H]1CCc2sc3ncnc(O[C@H]4CC[C@H](N5CCCCC5)CC4)c3c21` [Compound I-218, (R)-2-hydroxy-3-((R)-4-(((1r,4R)-4-(piperidin-1-yl)cyclohexyl)oxy)-6,7-dihydro-5H-cyclopenta[4,5]thieno[2,3-d]pyrimidin-5-yl)propanamide]: > 5.30; for `NC(=O)C[C@H]1CCc2sc3ncnc(OCC4CCNCC4)c3c21` [Compound I-143, 2-[(3R)-12-(piperidin-4-ylmethoxy)-7-thia-9,11-diazatricyclo[6.4.0.0[2,6]]dodeca-1(12),2(6),8,10-tetraen-3-yl]acetamide]: 4.70 to 5.30.
On to `NC(=O)C[C@H]1CCc2sc3ncnc(N[C@H]4CC[C@H](N5CCOCC5)CC4)c3c21` [Compound I-97, 2-[(3R)-12-[[4-(morpholin-4-yl)cyclohexyl]amino]-7-thia-9,11-diazatricyclo[6.4.0.0̂[2,6]]dodeca-1(12),2(6),8,10-tetraen-3-yl]acetamide], for which the pIC50 was > 5.30.
The figure for `OC[C@@H]1CCc2sc3ncnc(N[C@H]4CC[C@H](N5CCOCC5)CC4)c3c2C1` [Compound I-211, [(12R)-3-[[4-(morpholin-4-yl)cyclohexyl]amino]-8-thia-4,6-diazatricyclo[7.4.0.0[2,7]]trideca-1(9),2,4,6-tetraen-12-yl]methanol] is > 5.30.
The figure for `CN[C@H]1CC[C@H](Oc2ncnc3sc4c(c23)[C@@H](C[C@H]2NC(=O)NC2=O)CC4)CC1` [Compound I-159, (5R)-5-[[(3R)-12-[[4-(methylamino)cyclohexyl]oxy]-7-thia-9,11-diazatricyclo[6.4.0.0[2,6]]dodeca-1(8),2(6),9,11-tetraen-3-yl]methyl]imidazolidine-2,4-dione] is > 5.30.
The figure for `O=S(=O)(CCO)N1CCc2sc3ncnc(N[C@H]4CC[C@H](N5CCOCC5)CC4)c3c2C1` [Compound I-185, 2-(3-[[4-(morpholin-4-yl)cyclohexyl]amino]-8-thia-4,6,12-triazatricyclo[7.4.0.0[2,7]]trideca-1(9),2(7),3,5-tetraene-12-sulfonyl)ethan-1-ol] is > 5.30.
For the compound `NC(=O)C(O)C[C@H]1CCc2sc3ncnc(N[C@H]4CC[C@H](N5CCOCC5)CC4)c3c21` (mixture of isomers) [Compound I-118, 2-hydroxy-3-((R)-4-(((1r,4R)-4-morpholinocyclohexyl)amino)-6,7-dihydro-5H-cyclopenta[4,5]thieno[2,3-d]pyrimidin-5-yl)propanamide], the negative logarithm of the IC50 (pIC50) is > 5.30.
`CN(C)[C@H]1CC[C@H](Oc2ncnc3sc4c(c23)CN(C(=O)CC2CC2)CC4)CC1` [Compound I-170, 2-cyclopropyl-1-(3-[[4-(dimethylamino)cyclohexyl]oxy]-8-thia-4,6,12-triazatricyclo[7.4.0.0̂[2,7]]trideca-1(9),2(7),3,5-tetraen-12-yl)ethan-1-one] had a pIC50 of 4.70 to 5.30.
In the case of `CC(=O)N1CCc2sc3ncnc(N[C@H]4CC[C@H](N5CCOCC5)CC4)c3c2C1` [Compound I-172, 1-(3-[[4-(morpholin-4-yl)cyclohexyl]amino]-8-thia-4,6,12-triazatricyclo[7.4.0.0-[2,7]]trideca-1(9),2(7),3,5-tetraen-12-yl)ethan-1-one], the pIC50 was 4.70 to 5.30.
The same measure for `NC(=O)[C@@H]1CCc2sc3ncnc(N[C@H]4CC[C@H](N5CCOCC5)CC4)c3c2C1` [Compound I-208, (12R)-3-[[4-(morpholin-4-yl)cyclohexyl]amino]-8-thia-4,6-diazatricyclo[7.4.0.0[2,7]]trideca-1(9),2(7),3,5-tetraene-12-carboxamide]: > 5.30; for `COCCC1CCc2sc3ncnc(O[C@H]4CC[C@H](N(C)C)CC4)c3c21` (stereo partly drawn) [Compound I-32, 4-[[3-(2-methoxyethyl)-7-thia-9,11-diazatricyclo[6.4.0.0[2,6]]dodeca-1(8),2(6),9,11-tetraen-12-yl]oxy]-N,N-dimethylcyclohexan-1-amine]: > 5.30; for `CN(C)[C@H]1CC[C@H](Oc2ncnc3sc4c(c23)[C@@H](CC(=O)Nc2ccc(F)cn2)CC4)CC1` [Compound I-37, 2-[(3R)-12-[[4-(dimethylamino)cyclohexyl]oxy]-7-thia-9,11-diazatricyclo[6.4.0.0[2,6]]-dodeca-1(8),2(6),9,11-tetraen-3-yl]-N-(5-fluoropyridin-2-yl)acetamide]: > 5.30.
The same measure for `CC[C@]1(N(C)C)CC[C@H](Oc2ncnc3sc4c(c23)[C@@H](CC(N)=O)CC4)CC1` [Compound I-95, 2-[(3R)-12-[[4-(dimethylamino)-4-ethylcyclohexyl]oxy]-7-thia-9,11-diazatricyclo[6.4.0.0[2,6]]dodeca-1(8),2(6),9,11-tetraen-3-yl]acetamide]: > 5.30.
The same measure for `CN(C)[C@H]1CC[C@H](Oc2ncnc3sc4c(c23)C(C(=O)O)CC4)CC1` (stereo partly drawn) [Compound I-8, 4-(((1r,4r)-4-(dimethylamino)cyclohexyl)oxy)-6,7-dihydro-5H-cyclopenta[4,5]thieno[2,3-d]pyrimidine-5-carboxylic acid]: < 4.30; for `CN(C)[C@H]1CC[C@H](Oc2ncnc3sc4c(c23)[C@@H](C[C@H](O)C(N)=O)CC4)CC1` [Compound I-74, (2S)-3-[(3R)-12-[[4-(dimethylamino)cyclohexyl]oxy]-7-thia-9,11-diazatricyclo[6.4.0.0̂[2,6]]dodeca-1(8),2(6),9,11-tetraen-3-yl]-2-hydroxypropanamide]: > 5.30.
